Patent publication US4610987A, “Imidazoquinazolin-2-one compounds” (Daiichi Seiyaku Co., Ltd., priority 1983, dated 1986)
Converted amounts (≈) assume the structure as drawn. Like-named read-outs stand apart in the source and are kept apart here.

Columns and labels:
[1] = test system: platelet aggregation (rat platelet-rich-plasma); assay: Test of Platelet Aggregation Inhibition (in vitro), rat PRP; type: cell-based, Wistar Imamichi rat; conditions: for IC50: Platelet, in vitro, rat blood
Experimental: (§1) The test was performed as follows in accordance with the method of Ashida et al, Thrombosis and Haemostasis, Vol. 40, 542 (1979).
(§2) Blood was taken by puncture from the heart of a Wistar Imamichi rat under anesthesia with pentobarbital into a syringe containing 1/10 volume of a 3.13% aqueous solution of sodium citrate dihydrate, and the citrated blood was centrifuged to obtain a platelet-rich-plasma (PRP). In the same manner, citrated blood was collected from the vein of a healthy human who had not taken aspirin or any other anti-inflammatory agent since before 10 days, followed by centrifugation to obtain PRP. 5 μl of each test compound was added to 0.445 ml of each of these PRP samples, and the system was warmed at 30° C. for 1 minute. 50 μl of an aggregation inducer (ADP or collagen) was then added thereto, and platelet aggregation was determined according to the method of Born, Nature, Vol. 194, 927 (1962).

[2] = test system: platelet aggregation (human platelet-rich-plasma); assay: Test of Platelet Aggregation Inhibition (in vitro), human PRP; type: cell-based; conditions: human blood, ADP-induced
Experimental: as §1, §2

[3] = test system: platelet aggregation; assay: Test of Platelet Aggregation Inhibition (ex vivo, p.o.); type: in vivo, Wistar Imamichi rat; conditions: for inhibition at 10 mg/kg: Platelet, po, ex vivo, rat, 10 mg/Kg p.o., 1 hour, *P<0.05, **P<0.01, ***P<0.001; for aggregation inhibitory activity in ADP- or collagen-induced aggregation (in words): orally administered, Table 2
Experimental: One hour later, citrated blood was taken from the heart, and platelet aggregation was determined in the same manner as described in the in vitro test. The inhibitory activity was compared with that of control and expressed in terms of percent inhibition.

[4] = test system: circulatory system; assay: Test of Influence on Circulatory System (blood pressure, heart beats); type: in vivo, SLC-Wistar rat; conditions: rat, 50 mg/Kg p.o.
Experimental: 5 or 6 male normal SLC-Wistar rats per group (body weight: 205-255 g) orally received 50 mg/Kg of the test compound, and the blood pressure (tail cuff method) and the heart beats were measured with the passage of time in order to elucidate influences of the test compound on the circulatory system.

[5] = Solubility Test (water-solubility)
[6] = biological target: human platelet PDE I (Homo sapiens, UniProt O76074); assay: Inhibitory activity on phosphodiesterase, platelet PDE I (cGMP); type: biochemical; conditions: cGMP substrate
Experimental: (§3) Phosphodiesterase fractions were separated from 105,000×g of supernatant fractions from human platelets and heart by DEAE-cellulose column chromatography using the method of Timothy et al. (Arch. Biochem. Biophy. 196, 465-474, 1979) with minor modifications. These fractions were designated PDE I, PDE II and PDE III, depending upon the order of their emergence from the DEAE-cellulose column.
(§4) Phosphodiesterase activity was measured by the method of Thompson and Appleman (Biochemistry 10, 311-316, 1971) with slight modifications. The reaction mixture consisted of 25 mM of Tris-HCl (pH 7.4), 5 mM of MgCl2, 1 μM of [^3 H]-cAMP or cGMP (approximate 20,000 cpm), various concentrations of a test compound and the enzyme preparation. After incubation for 10 minutes at 30° C., the reaction was terminated by boiling the reaction mixture for 45 seconds. 5'-[^3 H]-AMP or GMP formed by phosphodiesterase was converted to [^3 H]adenosine or [^3 H]quanosine by snake venom (Botherop Atrox) containing 5'-nucleotidase and the product isolated by a cation exchange resin was counted in a liquid scintillation counter.

[7] = test system: human platelet PDE II; assay: Inhibitory activity on phosphodiesterase, platelet PDE II (cGMP); type: biochemical; conditions: cGMP substrate
Experimental: as §3, §4

[8] = biological target: human heart PDE I; assay: Inhibitory activity on phosphodiesterase, heart PDE I (cGMP); type: biochemical; conditions: cGMP substrate
Experimental: as §3, §4

[9] = biological target: human heart PDE III; assay: Inhibitory activity on phosphodiesterase, heart PDE III (cAMP); type: biochemical; conditions: for IC50: cAMP substrate; for activity on heart PDE (in words): Table 6
Experimental: as §3, §4

[10] = test system: platelet aggregation induced by B16 melanoma cells; assay: Inhibition on Platelet Aggregation Induced by Cancer Cells (in vitro), B16; type: cell-based, C57BL/6 mouse; design: key: +: Aggregation was observed.; ±: Aggregation was partially inhibited.; -: No aggregation was observed
Experimental: (§5) It is known nowadays that platelet aggregation plays an important role in metastasis of cancers. […] Tanaka et al. The effect of the compounds of this invention to inhibit the above-described cancer cell-induced platelet aggregation was tested as follows. Cell suspensions of B16 or 3LL were prepared according to the method of Tanaka et al, Invarsion and Metastasis, Vol. 2, 289 (1982). […] Platelet aggregation of the sample system was determined according to the method of Born, and the platelet aggregation inhibitory activity was expressed by the following scale: […]

[11] = test system: platelet aggregation induced by Lewis lung cancer (3LL) cells; assay: Inhibition on Platelet Aggregation Induced by Cancer Cells (in vitro), 3LL; type: cell-based, C57BL/6 mouse; design: key: +: Aggregation was observed.; ±: Aggregation was partially inhibited.; -: No aggregation was observed
Experimental: as §5

[12] = biological target: human platelet PDE III (Homo sapiens, UniProt Q14432); assay: biochemical; conditions: for IC50: cAMP substrate
Experimental: as §3, §4

[13] = test system: platelet aggregation; assay: Test of Platelet Aggregation Inhibition (ex vivo; i.v.); type: in vivo, Wistar Imamichi rat; conditions: iv, 0.25 h, rat, i.v. 67 μg/Kg/min, 15 min
Experimental: As test animals, 5 to 6 Wistar Imamichi rats (body weight: about 260 g) that had been allowed food and water ad libitum were used per group. The test compound was dissolved in a physiological saline solution and continuously injected over a period of 10 or 15 minutes to the rats under anesthesia with pentobarbital through the femoral vein. Immediately after completion of the administration, citrated blood was collected from the heart, and platelet aggregation was determined in the same manner as in the test in vitro in Test Example 2.

[14] = ADP-induced, read-out: IC50, platelet aggregation inhibition in vitro, ADP
[15] = collagen-induced, read-out: IC50, platelet aggregation inhibition in vitro, Collagen
[16] = ADP, read-out: ex vivo % inhibition of platelet aggregation, ADP
[17] = collagen, read-out: ex vivo % inhibition of platelet aggregation, Collagen

Chain of human platelet PDE III (Q14432 whole entry): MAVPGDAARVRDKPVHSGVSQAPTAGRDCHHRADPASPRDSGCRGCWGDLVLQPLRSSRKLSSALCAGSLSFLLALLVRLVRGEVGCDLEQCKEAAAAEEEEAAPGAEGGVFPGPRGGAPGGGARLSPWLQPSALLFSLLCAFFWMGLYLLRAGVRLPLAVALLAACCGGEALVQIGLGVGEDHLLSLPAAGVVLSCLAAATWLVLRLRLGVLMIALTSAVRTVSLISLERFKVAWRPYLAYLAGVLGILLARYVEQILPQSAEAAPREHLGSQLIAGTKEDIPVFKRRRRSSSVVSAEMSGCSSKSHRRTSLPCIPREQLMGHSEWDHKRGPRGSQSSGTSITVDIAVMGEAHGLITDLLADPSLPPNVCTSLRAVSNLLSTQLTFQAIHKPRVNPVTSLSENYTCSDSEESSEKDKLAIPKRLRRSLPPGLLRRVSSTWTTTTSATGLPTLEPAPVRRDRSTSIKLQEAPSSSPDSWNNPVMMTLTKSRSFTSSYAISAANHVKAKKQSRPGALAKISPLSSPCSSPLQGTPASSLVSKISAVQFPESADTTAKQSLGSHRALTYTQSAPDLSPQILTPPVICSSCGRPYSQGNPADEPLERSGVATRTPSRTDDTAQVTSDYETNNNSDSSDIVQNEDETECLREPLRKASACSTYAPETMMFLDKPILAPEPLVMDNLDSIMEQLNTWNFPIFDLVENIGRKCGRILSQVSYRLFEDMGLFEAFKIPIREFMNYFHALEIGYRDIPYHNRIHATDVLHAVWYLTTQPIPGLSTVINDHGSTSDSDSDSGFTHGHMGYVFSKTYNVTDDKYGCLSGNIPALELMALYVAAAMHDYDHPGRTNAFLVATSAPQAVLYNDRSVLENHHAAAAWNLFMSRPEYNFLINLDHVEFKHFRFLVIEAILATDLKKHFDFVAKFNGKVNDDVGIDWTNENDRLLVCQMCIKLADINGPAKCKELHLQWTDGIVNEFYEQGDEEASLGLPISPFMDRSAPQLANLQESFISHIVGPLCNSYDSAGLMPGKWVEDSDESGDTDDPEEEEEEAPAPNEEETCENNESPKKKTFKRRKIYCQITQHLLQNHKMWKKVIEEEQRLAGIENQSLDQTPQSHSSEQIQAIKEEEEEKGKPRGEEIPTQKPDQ

## Cl.Cl.Nc1ccc2c(c1)CN1CC(=O)NC1=N2 [BL-7-NH2, 7-amino-1,2,3,5-tetrahydroimidazo[2,1-b]quinazolin-2-one dihydrochloride, reference compound]
[1]
  platelet aggregation inhibitory activity (in words): scarecely exhibited platelet aggregation inhibitory activity
[1]; [14]
  IC50: 170000 nM
[1]; [15]
  IC50: 16000 nM
[2]
  IC50: 50000 nM

## Cc1cccc2c1CN1CC(=O)NC1=N2.Cl [BL-3459, 6-methyl-1,2,3,5-tetrahydroimidazo[2,1-b]quinazolin-2-one hydrochloride]
[1]; [14]
  IC50: 5000 nM
[1]; [15]
  IC50: 760 nM
[2]
  IC50: 1700 nM
[3]; [16]
  inhibition at 10 mg/kg: 31%
[3]; [17]
  inhibition at 10 mg/kg: 54%
[3]
  aggregation inhibitory activity in ADP- or collagen-induced aggregation (in words): widely varied depending on the individual animal and, therefore, cannot be regarded significant
[4]; 1 hr, **P<0.01
  Increase in Heart Beat: 18%
[4]; 1 hr, *P<0.05, **P<0.01
  Reduction in Blood Pressure: 23%
[4]; 2 hr, **P<0.01
  Increase in Heart Beat: 20%
[4]; 2 hr, *P<0.05, **P<0.01
  Reduction in Blood Pressure: 28%
[4]; 3 hr, **P<0.01
  Increase in Heart Beat: 17%
  Reduction in Blood Pressure: 26%
[4]; 5 hr, **P<0.01
  Increase in Heart Beat: 18%
  Reduction in Blood Pressure: 34%
[4]; 6 hr, *P<0.05, **P<0.01
  Increase in Heart Beat: 19%
  Reduction in Blood Pressure: 35%
[4]; 24 hr, *P<0.05
  Reduction in Blood Pressure: 12%
[5]; tap water, pH 2
  solubility: < 100 µg/mL
[5]; water, pH 4, water
  solubility: < 10 µg/mL

## O=C1CN2Cc3c(ccc(Cl)c3Cl)N=C2N1 [BL-4162, 6,7-dichloro-1,2,3,5-tetrahydro[2,1-b]quinazolin-2-one]
[1]; [14]
  IC50: 800 nM
[1]; [15]
  IC50: 20 nM
[2]
  IC50: 1200 nM
[3]; [16]
  inhibition at 10 mg/kg: 8%
[3]; [17]
  inhibition at 10 mg/kg: 53%
[3]
  aggregation inhibitory activity in ADP- or collagen-induced aggregation (in words): widely varied depending on the individual animal and, therefore, cannot be regarded significant
[4]; 1 hr, **P<0.01
  Increase in Heart Beat: 28%
[4]; 1 hr, *P<0.05, **P<0.01
  Reduction in Blood Pressure: 11%
[4]; 2 hr, **P<0.01
  Increase in Heart Beat: 37%
[4]; 2 hr, *P<0.05, **P<0.01
  Reduction in Blood Pressure: 16%
[4]; 3 hr, **P<0.01
  Increase in Heart Beat: 31%
  Reduction in Blood Pressure: 17%
[4]; 4 hr, **P<0.01
  Increase in Heart Beat: 37%
  Reduction in Blood Pressure: 14%
[4]; 5 hr, **P<0.01
  Increase in Heart Beat: 31%
  Reduction in Blood Pressure: 14%
[4]; 6 hr, *P<0.05, **P<0.01
  Increase in Heart Beat: 31%
  Reduction in Blood Pressure: 13%
[6]
  IC50: 3900 nM
[7]
  IC50: 3300 nM
[8]
  IC50: > 10000 nM
[9]
  IC50: 96 nM
[5]; tap water, pH 2
  solubility: < 10 µg/mL
[5]; water, pH 4, water
  solubility: < 10 µg/mL

## CN(C)c1cc2c(cc1Cl)NC1=NC(=O)CN1C2 [Example 15]
[1]
  platelet aggregation inhibitory activity (in words): strong platelet aggregation inhibitory activity
[1]; [14]
  IC50: 1100 nM
[1]; [15]
  IC50: 440 nM
[3]; [16]
  inhibition at 10 mg/kg: 28%
[3]; [17]
  inhibition at 10 mg/kg: 49%
[10]; sample concn. 0.1 μM
  Inhibition on platelet aggregation induced by B16: +
[10]; sample concn. 0.3 μM
  Inhibition on platelet aggregation induced by B16: -
[10]; sample concn. 1 μM
  Inhibition on platelet aggregation induced by B16: -
[10]; sample concn. 3 μM
  Inhibition on platelet aggregation induced by B16: -
[11]; sample concn. 0.3 μM
  Inhibition on platelet aggregation induced by 3LL: ±
[11]; sample concn. 1 μM
  Inhibition on platelet aggregation induced by 3LL: -
[11]; sample concn. 3 μM
  Inhibition on platelet aggregation induced by 3LL: -
[6]
  IC50: 3900 nM
[7]
  IC50: 5100 nM
[12]; Heart/Platelet
  IC50 Ratio (PDE II) Heart/Platelet: 1.7
[12]
  IC50: 63 nM
[8]
  IC50: > 100000 nM
[9]
  activity on heart PDE (in words): strong activity on heart PDE
  IC50: 110 nM
[5]
  water-solubility (in words): water-soluble

## Cl.Cl.O.O=C1CN2Cc3cc(N4CCCCC4)c(Cl)cc3N=C2N1 [Example 16, 8-Chloro-7-piperidino-1,2,3,5-tetrahydroimidazo[2,1-b] quinazolin-2-one dihydrochloride monohydrate]
[1]; [14]
  IC50: 400 nM
[1]; [15]
  IC50: 460 nM
[2]
  IC50: 12500 nM
[3]; [16]
  inhibition at 10 mg/kg: 34%
[3]; [17]
  inhibition at 10 mg/kg: 76%
[10]; sample concn. 0.3 μM
  Inhibition on platelet aggregation induced by B16: ±
[10]; sample concn. 1 μM
  Inhibition on platelet aggregation induced by B16: -
[11]; sample concn. 1 μM
  Inhibition on platelet aggregation induced by 3LL: +
[11]; sample concn. 3 μM
  Inhibition on platelet aggregation induced by 3LL: -
[11]; sample concn. 10 μM
  Inhibition on platelet aggregation induced by 3LL: -
[6]
  IC50: 30000 nM
[7]
  IC50: > 30000 nM
[12]
  IC50 Ratio (PDE II) Heart/Platelet: 11.6
  IC50: 8.2 nM
[12]; Table 6
  selectivity to platelet PDE (in words): high selectivity to platelet PDE
[8]
  IC50: > 10000 nM
[9]
  IC50: 95 nM
[5]
  water-solubility (in words): low water-solubility

## CN(C)c1ccc2c(c1)CN1CC(=O)NC1=N2 [Example 21, 7-dimethylamino-1,2,3,5-tetrahydroimidazo[2,1-b]quinazolin-2-one]
[1]
  platelet aggregation inhibitory activity (in words): strong platelet aggregation inhibitory activity
[1]; [14]
  IC50: 5400 nM
[1]; [15]
  IC50: 1400 nM
[2]
  IC50: 7200 nM
[3]; [16]
  inhibition at 10 mg/kg: 29%
[3]; [17]
  inhibition at 10 mg/kg: 48%
[13]; ADP, *P<0.05, read-out: Percent Inhibition of platelet aggregation, ADP
  inhibition at 0.067 mg/kg: 23%
[13]; collagen, *P<0.05, read-out: Percent Inhibition of platelet aggregation, Collagen
  inhibition at 0.067 mg/kg: 71%
[4]; 1 hr, **P<0.01
  Increase in Heart Beat: 19%
[4]; 1 hr, *P<0.05, **P<0.01
  Reduction in Blood Pressure: 1.0%
[4]; 2 hr, **P<0.01
  Increase in Heart Beat: 22%
[4]; 2 hr, *P<0.05, **P<0.01
  Reduction in Blood Pressure: 5.0%
[4]; 3 hr, **P<0.01
  Increase in Heart Beat: 20%
  Reduction in Blood Pressure: 5.0%
[4]; 5 hr, **P<0.01
  Increase in Heart Beat: 23%
  Reduction in Blood Pressure: 5.0%
[4]; 6 hr, *P<0.05, **P<0.01
  Increase in Heart Beat: 15%
  Reduction in Blood Pressure: 1.0%
[6]
  IC50: 70000 nM
[7]
  IC50: 57000 nM
[12]; Heart/Platelet
  IC50 Ratio (PDE II) Heart/Platelet: 1.1
[12]
  IC50: 1300 nM
[8]
  IC50: > 100000 nM
[9]
  activity on heart PDE (in words): strong activity on heart PDE
  IC50: 1400 nM
[5]
  water-solubility (in words): water-soluble
[5]; tap water, pH 2
  solubility: > 100000 µg/mL
[5]; water, pH 4, water
  solubility: 180 µg/mL (≈ 782 µM)
